Test results taken from patent US20250090538A1, “TLR7/8-ANTAGONIST FOR TREATING SJÖGREN'S SYNDROME OR MIXED CONNECTIVE TISSUE DISEASE” (Novartis AG, priority 2022, published 2025).
“Also recorded” adds a separate entry of the source.

What was measured:
[1] = tested on: TLR7 and TLR8; test: Selectivity for TLR7 and TLR8 over other TLRs and the IL-1 receptor on human PBMCs; assay type: cell-based
[2] = First-in-human study, pharmacokinetics in healthy volunteers (plasma concentration; SAD, MAD, food effect); assay type: in vivo; details: for increase of exposure (plasma concentration) with dose: healthy volunteers
Method: (§1) A first-in-human (FIH) study was conducted to assess the safety and tolerability, pharmacokinetics (PK) and pharmacodynamics (PD) of single and multiple doses of compound of Formula (I) as twice daily (bid) oral administration in healthy volunteers, to support further clinical development of compound of Formula (I) in autoimmune diseases. This study also explored the effect of food intake.
(§2) First-in-human study in healthy volunteers (HVs) included the following: • Part A was a randomized, subject-blinded, placebo-controlled, single ascending dose (SAD) study with 10 cohorts. Each cohort received in an ascending order a 1 mg, 3 mg, 10 mg, 20 mg, 40 mg, 80 mg, 160 mg, 320 mg, 640 mg or 1000 mg single dose of compound of Formula (I). • Part B was a randomized, subject-blinded, placebo-controlled, multiple ascending dose (MAD) study with 5 cohorts. Each cohort received in an ascending order a 25 mg, 50 mg, 100 mg, 200 mg or 400 mg dose of compound of Formula (I) b.i.d. for 14 days. • Part C was a randomized, open-label, two-sequence, two-period crossover study with a 200 mg dose of compound of Formula (I) administered each underfed or fasted condition, for the food effect evaluation.

[3] = First-in-human study, safety and tolerability in healthy volunteers; assay type: in vivo; details: healthy subjects
Method: as §1, §2

[4] = target: T1, TLR7 (Homo sapiens, UniProt Q9NYK1); test: Ex-vivo stimulation of whole blood from SAD and MAD cohorts with a TLR7/8 agonist, B cell activation (CD69); assay type: cell-based
T1 construct: endogenous in cells; host or cells: B cells in whole blood of healthy human subjects (SAD and MAD cohorts)
T1 sequence (Q9NYK1 27-1049): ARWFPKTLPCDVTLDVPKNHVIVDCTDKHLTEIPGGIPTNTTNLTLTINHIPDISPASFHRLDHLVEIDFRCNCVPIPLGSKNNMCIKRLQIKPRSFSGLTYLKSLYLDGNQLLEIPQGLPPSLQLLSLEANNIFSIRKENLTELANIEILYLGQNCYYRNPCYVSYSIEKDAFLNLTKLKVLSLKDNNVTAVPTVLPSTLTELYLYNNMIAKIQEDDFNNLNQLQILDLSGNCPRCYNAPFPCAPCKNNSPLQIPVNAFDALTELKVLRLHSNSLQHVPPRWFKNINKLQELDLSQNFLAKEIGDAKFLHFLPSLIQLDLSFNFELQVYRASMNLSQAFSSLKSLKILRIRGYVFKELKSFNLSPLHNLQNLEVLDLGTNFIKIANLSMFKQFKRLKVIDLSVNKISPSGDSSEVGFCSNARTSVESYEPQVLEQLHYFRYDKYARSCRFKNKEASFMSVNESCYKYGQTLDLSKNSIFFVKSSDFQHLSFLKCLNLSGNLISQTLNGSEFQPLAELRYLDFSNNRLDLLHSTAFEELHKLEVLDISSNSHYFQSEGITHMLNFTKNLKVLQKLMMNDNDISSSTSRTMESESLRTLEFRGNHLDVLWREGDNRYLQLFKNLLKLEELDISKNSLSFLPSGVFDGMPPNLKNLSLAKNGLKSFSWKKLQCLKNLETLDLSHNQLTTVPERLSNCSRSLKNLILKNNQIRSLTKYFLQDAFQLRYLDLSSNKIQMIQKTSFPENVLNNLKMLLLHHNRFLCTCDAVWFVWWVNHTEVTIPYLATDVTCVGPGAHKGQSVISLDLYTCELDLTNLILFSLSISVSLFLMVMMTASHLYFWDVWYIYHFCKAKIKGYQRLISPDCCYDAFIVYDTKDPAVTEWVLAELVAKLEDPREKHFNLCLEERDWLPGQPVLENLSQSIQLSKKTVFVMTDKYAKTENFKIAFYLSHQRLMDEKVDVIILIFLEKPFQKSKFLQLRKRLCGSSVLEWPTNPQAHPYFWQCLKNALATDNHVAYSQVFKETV
Source text: (§3) CD69 and TNF are biomarkers intended to inform the pharmacodynamic (PD) effect of compound of Formula (I). Whole blood samples from the SAD and MAD cohorts were ex-vivo stimulated with a TLR7/8 agonist to increase levels of CD69 and TNF.

[5] = target: T2, TLR8 (Homo sapiens, UniProt Q9NR97); test: Ex-vivo stimulation of whole blood from SAD and MAD cohorts with a TLR7/8 agonist, monocyte TNF production; assay type: cell-based
T2 construct: endogenous in cells; host or cells: monocytes in whole blood of healthy human subjects (SAD and MAD cohorts)
T2 sequence (Q9NR97 27-1041): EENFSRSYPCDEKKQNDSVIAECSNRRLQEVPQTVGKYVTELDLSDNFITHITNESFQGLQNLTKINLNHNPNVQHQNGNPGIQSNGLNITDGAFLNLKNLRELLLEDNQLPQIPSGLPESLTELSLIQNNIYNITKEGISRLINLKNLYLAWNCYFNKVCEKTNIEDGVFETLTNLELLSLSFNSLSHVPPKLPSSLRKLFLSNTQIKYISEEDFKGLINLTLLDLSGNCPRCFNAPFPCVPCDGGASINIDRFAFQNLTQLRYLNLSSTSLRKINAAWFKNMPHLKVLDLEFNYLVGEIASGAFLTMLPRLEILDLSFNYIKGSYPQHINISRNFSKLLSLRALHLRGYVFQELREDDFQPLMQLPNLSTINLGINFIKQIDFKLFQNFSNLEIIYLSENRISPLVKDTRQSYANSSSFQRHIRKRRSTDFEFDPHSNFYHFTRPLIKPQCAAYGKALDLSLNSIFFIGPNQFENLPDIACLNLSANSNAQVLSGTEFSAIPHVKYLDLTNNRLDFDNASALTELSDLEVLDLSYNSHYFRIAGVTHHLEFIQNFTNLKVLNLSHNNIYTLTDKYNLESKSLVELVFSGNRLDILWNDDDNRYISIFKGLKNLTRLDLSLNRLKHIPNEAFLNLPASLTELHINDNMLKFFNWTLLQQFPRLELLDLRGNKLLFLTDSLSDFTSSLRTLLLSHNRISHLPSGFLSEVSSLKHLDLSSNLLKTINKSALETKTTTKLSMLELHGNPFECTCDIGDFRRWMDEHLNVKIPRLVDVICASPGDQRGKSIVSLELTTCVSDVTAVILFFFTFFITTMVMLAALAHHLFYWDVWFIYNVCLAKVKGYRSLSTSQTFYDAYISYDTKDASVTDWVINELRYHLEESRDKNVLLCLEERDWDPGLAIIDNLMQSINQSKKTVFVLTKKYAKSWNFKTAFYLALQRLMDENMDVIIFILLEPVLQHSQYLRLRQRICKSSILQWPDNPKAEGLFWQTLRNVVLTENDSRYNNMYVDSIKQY
Source text: as §3

[6] = 200 mg b.i.d. for 14 days, FIH study
[7] = ex-vivo stimulated whole blood, across the dose range (SAD and MAD)

Cc1cc(N2CCc3c(c(C)nn3CC34CCC(NC(=O)[C@@H]5COCCN5)(CC3)CC4)C2)c2cnn(C)c2n1 [compound of Formula (I), (S)-N-(4-((5-(1,6-dimethyl-1H-pyrazolo[3,4-b]pyridin-4-yl)-3-methyl-4,5,6,7-tetrahydro-1H-pyrazolo[4,3-c]pyridin-1-yl)methyl)bicyclo[2.2.2]octan-1-yl)morpholine-3-carboxamide]
selectivity for TLR7 and TLR8 over other TLRs and the IL-1 receptor [1]: highly selective | Cmax timing under fed condition ([2]; 200 mg dose, fed condition, FIG. 3): slightly delayed Cmax | food effect on exposure ([2]; 200 mg dose, fed vs fasted crossover, FIG. 3): No relevant food effect | increase of exposure (plasma concentration) with dose ([2]; multiple ascending dose b.i.d. for 14 days, FIG. 2): dose-proportional at steady state for the lower doses | half-life ([2]; plasma, oral, human, FIH study, maximum value, read-out: terminal half-life): ≤ 14.4 h | increase of exposure (plasma concentration) with dose ([2]; single ascending dose, oral, FIG. 1): dose-proportional for the higher doses | safety and tolerability ([3]; multiple administrations of up to 400 mg b.i.d. for 14 days): safe and well tolerated; also recorded: safe and well-tolerated | safety and tolerability ([3]; single oral administration of up to 1000 mg): safe and well tolerated; also recorded: safe and well-tolerated | TLR7 pathway inhibition [4, 6]: full pathway inhibition | B cell activation (upregulation of CD69) following TLR7 stimulation [4, 7]: inhibited B cell activation | TLR8 pathway inhibition [5, 6]: full pathway inhibition | activation of human monocytes to produce TNF following TLR8 stimulation [5, 7]: inhibited activation of human monocytes to produce TNF
